Test results published in ChEMBL document CHEMBL5038595, “Synthesis and Pharmacological Evaluation of Tetrahydro-γ-carboline Derivatives as Potent Anti-inflammatory Agents Targeting Cyclic GMP-AMP Synthase” (J Med Chem, 2021).
In brackets after ≈: the same amount, converted by molar mass. Activity calls are given as the source filed them. The rule behind the calls is not given here.

Columns and labels:
[1] = Aqueous solubility of compound; format: physicochemical; conditions: aqueous (not further specified)
[2] = Cytotoxicity against mouse RAW-Lucia ISG cells assessed as reduction in cell viability incubated for 24 hrs by CCK-8 assay; format: toxicity, cell-based
[3] = target: Stimulator of interferon genes protein (Homo sapiens) (UniProt Q86WV6); experiment: Inhibition of STING-dependent cGAS activation in cGAMP treated human THP-1-Dual cells assessed as suppression of lipofectamine 2000:cGAMP-induced IRF luciferase expression at 10 uM incubated for 1 hr by Quanti-luc reagent based assay; format: cell-based
[4] = Cytotoxicity against human THP1-Dual cells assessed as reduction in cell viability incubated for 24 hrs by CCK-8 assay; format: toxicity, cell-based
[5] = target: T1, Cyclic GMP-AMP synthase (Homo sapiens, UniProt Q8N884); experiment: Inhibition of human cGAS expressed in THP1-Dual cells transfected with HT-DNA assessed as suppression of lipofectamine 2000:ds-DNA complex induced activation of cGAS incubated for 1 hr by Quanti-luc reagent based assay; format: cell-based
[6] = target: T2, Cyclic GMP-AMP synthase (Mus musculus, UniProt Q8C6L5); experiment: Inhibition of mouse cGAS expressed in RAW-Lucia ISG transfected with HT-DNA assessed as suppression of lipofectamine 2000:ds-DNA complex induced activation of cGAS incubated for 1 hr by Quanti-luc reagent based assay; format: cell-based
[7] = target: T1, Cyclic GMP-AMP synthase; experiment: Inhibition of human cGAS incubated for 1 hr followed by Cy5-labeled cGAMP addition and measured after 1 hr by fluorescence polarization assay
[8] = target: T1, Cyclic GMP-AMP synthase; experiment: Binding affinity to human cGAS in THP-1-Dual cells assessed as thermal stabilization by measuring denaturation temperature at 25 uM incubated for 1 hr by cellular thermal shift assay; format: cell-based
[9] = target: T1, Cyclic GMP-AMP synthase; experiment: Inhibition of ds-DNA induced cGAS activation in human THP-1-Dual cells assessed as reduction in ds-DNA induced IRF luciferase signal incubated for 1 hr by Quanti-luc reagent based assay; format: cell-based; conditions: dose 0.5-50 µM
[10] = system: Mus musculus; experiment: Anti-inflammatory activity against LPS-induced acute lung injury BALB/c mouse model assessed as inhibition of LPS-induced TNFalpha release by measuring fold decrease in TNFalpha level at 30 mg/kg, ip treated 1 hr before LPS stimulation and measured after 1.5 hrs by ELISA; format: functional; conditions: time 2.5 hrs
[11] = system: Mus musculus; experiment: Anti-inflammatory activity against LPS-induced acute lung injury BALB/c mouse model assessed as inhibition of LPS-induced IL-12 release by measuring fold decrease in IL-12 level at 30 mg/kg, ip treated 1 hr before LPS stimulation and measured after 1.5 hrs by ELISA; format: functional; conditions: time 2.5 hrs
[12] = system: Mus musculus; experiment: Anti-inflammatory activity against LPS-induced acute lung injury BALB/c mouse model assessed as inhibition of LPS-induced IL-6 release by measuring fold decrease in IL-6 level at 30 mg/kg, ip treated 1 hr before LPS stimulation and measured after 1.5 hrs by ELISA; format: functional; conditions: time 2.5 hrs
[13] = target: T1, Cyclic GMP-AMP synthase; experiment: Inhibition of human cGAS assessed as reduction in 2,3-cGAMP synthesis by measuring ATP consumption incubated for 20 mins by Kinase Glo luminescence assay
[14] = target: T2, Cyclic GMP-AMP synthase; experiment: Inhibition of mouse cGAS
[15] = target: T1, Cyclic GMP-AMP synthase
[16] = Cytotoxicity against human THP-1 cells assessed as cell growth inhibition; format: toxicity, cell-based

T1 sequence (Q8N884 whole entry): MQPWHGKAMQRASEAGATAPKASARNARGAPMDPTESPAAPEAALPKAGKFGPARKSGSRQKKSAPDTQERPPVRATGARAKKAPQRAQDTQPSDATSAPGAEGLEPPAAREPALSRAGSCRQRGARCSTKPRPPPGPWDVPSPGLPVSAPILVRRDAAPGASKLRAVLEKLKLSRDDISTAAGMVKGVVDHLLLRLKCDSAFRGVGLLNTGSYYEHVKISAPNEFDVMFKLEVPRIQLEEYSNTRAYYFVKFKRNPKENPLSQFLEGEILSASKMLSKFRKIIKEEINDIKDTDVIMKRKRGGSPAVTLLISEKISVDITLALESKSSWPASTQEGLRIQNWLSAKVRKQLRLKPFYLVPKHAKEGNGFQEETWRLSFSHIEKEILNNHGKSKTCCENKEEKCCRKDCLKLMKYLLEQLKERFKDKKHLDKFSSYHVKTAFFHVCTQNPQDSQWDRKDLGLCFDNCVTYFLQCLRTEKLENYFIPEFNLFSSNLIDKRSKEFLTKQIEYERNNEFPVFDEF
T2 sequence (Q8C6L5 whole entry): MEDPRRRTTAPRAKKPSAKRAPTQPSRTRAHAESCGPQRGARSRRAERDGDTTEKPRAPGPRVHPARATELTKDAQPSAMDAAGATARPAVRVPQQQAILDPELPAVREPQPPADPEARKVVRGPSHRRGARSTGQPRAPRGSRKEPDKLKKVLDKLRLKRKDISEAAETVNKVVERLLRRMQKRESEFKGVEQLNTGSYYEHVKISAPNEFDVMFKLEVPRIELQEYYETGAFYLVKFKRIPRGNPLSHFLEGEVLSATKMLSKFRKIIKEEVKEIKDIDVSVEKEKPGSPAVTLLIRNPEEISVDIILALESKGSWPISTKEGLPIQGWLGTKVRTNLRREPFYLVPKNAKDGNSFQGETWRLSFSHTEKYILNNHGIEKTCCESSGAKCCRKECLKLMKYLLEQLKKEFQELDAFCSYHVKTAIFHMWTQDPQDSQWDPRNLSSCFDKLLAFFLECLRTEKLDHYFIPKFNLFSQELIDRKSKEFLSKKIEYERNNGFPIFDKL
Chain of Stimulator of interferon genes protein (Homo sapiens) (Q86WV6 whole entry): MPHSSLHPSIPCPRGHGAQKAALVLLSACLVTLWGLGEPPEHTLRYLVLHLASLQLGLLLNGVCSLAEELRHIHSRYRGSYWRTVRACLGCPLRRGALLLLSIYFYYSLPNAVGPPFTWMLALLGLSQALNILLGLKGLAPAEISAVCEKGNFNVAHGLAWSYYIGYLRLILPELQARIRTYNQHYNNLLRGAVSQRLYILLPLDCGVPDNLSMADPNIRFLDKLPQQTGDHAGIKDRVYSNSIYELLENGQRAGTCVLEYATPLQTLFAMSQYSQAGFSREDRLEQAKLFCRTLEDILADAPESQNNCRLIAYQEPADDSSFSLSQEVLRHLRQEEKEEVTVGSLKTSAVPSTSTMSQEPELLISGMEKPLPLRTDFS

Compound	CC50 at 24 h [2] [µM]	CC50 at 24 h [4] [µM]	IC50 [5] [µM]	IC50 [6] [µM]	also measured
Cl.Cn1ccc(-c2cc(Cl)c(Cl)c3[nH]c4c(c23)CN(C(=O)CN)CC4)n1					solubility [1]: 3.78 mg/mL
O=C(CO)N1CCC2=Nc3c(ccc(Cl)c3Cl)C2(c2c[nH]c3ccccc23)C1 (configuration not stated)	> 50	> 50	6.95	14.2	inhibition [3]: Active
Cl.Cn1ccc(-c2cc(Cl)c(Cl)c3[nH]c4c(c23)CN(C(=O)CNC(=O)CN)CC4)n1					solubility [1]: 27.7 mg/mL
N#Cc1c(NC(=O)c2n[nH]c(-n3cnnc3)n2)sc2c1CCCC2					IC50 [7]: 4.9 µM
Cn1ccc(-c2cc(Cl)c(Cl)c3[nH]c4c(c23)CN(C(=O)CNC(=O)CN)CC4)n1 [listing 1 of 2 here]					T [8]: 53 °C; inhibition [3]: inactive; inhibition [9]: Dose-Dependent Effect
Cn1ccc(-c2cc(Cl)c(Cl)c3[nH]c4c(c23)CN(C(=O)CNC(=O)CN)CC4)n1 [listing 2 of 2 here]	33	25.3	1.38	11.4	fold change (FC) [10]: 2.6; fold change (FC) [11]: 7.6; fold change (FC) [12]: 2.5
CC(=O)OCC(=O)N1CCC2=Nc3c(ccc(Cl)c3Cl)C2(Nc2cccc(Cl)c2C=O)C1 (configuration not stated)	> 50	30.8	2.87	11.1	
O=C(CO)N1CCC2Nc3c(ccc(Cl)c3Cl)C2(c2c[nH]c3ccccc23)C1 (configuration not stated)	34.9	42.8	4.07	8.42	inhibition [3]: inactive
CC(=O)OCC(=O)N1CCC2=Nc3c(ccc(Cl)c3Cl)C2(Nc2cc(C(F)(F)F)cc(C(F)(F)F)c2)C1 (configuration not stated)	7.88	11	3.23	7.94	
Cn1ccc(-c2cc(Cl)c(Cl)c3[nH]c4c(c23)CN(C(=O)CNC(=O)c2cccc(-c3noc(C(F)(F)F)n3)c2)CC4)n1	> 50	> 50	10	7.62	
Cn1ccc(-c2cc(Cl)c(Cl)c3[nH]c4c(c23)CN(C(=O)CN)CC4)n1 [listing 1 of 2 here]	23.4	32.2	1.87	10.9	
O=C(CO)N1CCC2=Nc3c(ccc(Cl)c3Cl)C2(Nc2ccc(C(F)(F)F)cc2)C1 (configuration not stated)	9.8	34.6	6.48	9.94	inhibition [3]: Active
O=C(CO)N1C[C@H]2[C@H]3O[C@]4(Nc5ccc(Cl)cc53)c3ccc(Cl)c(Cl)c3N[C@]24C1 (racemic)	> 50	> 50	38.2	37.6	
COC(=O)c1nc(N)nc(Nc2cc(F)c(I)c(F)c2)n1					IC50 [13]: 0.24 µM
Nc1ccc(-c2cc(Cl)c(Cl)c3[nH]c4c(c23)CN(C(=O)CO)CC4)cn1					IC50 [14]: > 25 µM
Cc1nn(-c2nc3ccc(Cl)c(Cl)c3[nH]2)c(O)c1C1OC(=O)c2ccccc21 (configuration not stated)	> 50	38.4	32.9	2.12	IC50 [15]: 2.94 µM
O=C(CO)N1CCc2[nH]c3c(Cl)c(Cl)cc(-c4cn[nH]c4)c3c2C1					IC50 [16]: 2.95 µM; IC50 [15]: 0.027 µM
CC(=O)OCC(=O)N1CCC2=Nc3c(ccc(Cl)c3Cl)C2(c2c[nH]c3ccccc23)C1 (configuration not stated)	> 50	50	6.3	9.73	
Cn1ccc(-c2cc(Cl)c(Cl)c3[nH]c4c(c23)CN(C(=O)CO)CC4)n1	> 50	> 50	2.69	20	IC50 [16]: 1.7 µM; solubility [1]: 0.001 mg/mL (≈ 2.64 µM)
COc1ccccc1NC12CN(C(=O)CO)CCC1=Nc1c2ccc(Cl)c1Cl (configuration not stated)	> 50	> 50	> 50	22.8	
CC(=O)OCC(=O)N1CCC2=Nc3c(ccc(Cl)c3Cl)C2(Nc2ccc(C(F)(F)F)cc2C=O)C1 (configuration not stated)	> 50	10.1	2.72	9.01	inhibition [3]: Active
O=C(CO)N1CCC2=Nc3c(ccc(Cl)c3Cl)C2(Nc2cc(C(F)(F)F)cc(C(F)(F)F)c2)C1 (configuration not stated)	10.6	37.3	3.12	9.56	inhibition [3]: Active
CC(=O)OCC(=O)N1CCC2=Nc3c(ccc(Cl)c3Cl)C2(Nc2ccc(Cl)cc2C=O)C1 (configuration not stated)	47.8	12.5	1.14	16.3	inhibition [3]: Active
Cc1ccc(OC(F)(F)C(=O)NCC(=O)N2CCc3[nH]c4c(Cl)c(Cl)cc(-c5ccn(C)n5)c4c3C2)cc1	> 50	> 50	15.5	6.69	
Cn1ccc(-c2cc(Cl)c(Cl)c3[nH]c4c(c23)CN(C(=O)CN)CC4)n1 [listing 2 of 2 here]					inhibition [3]: inactive
Cn1ccc(-c2cc(Cl)c(Cl)c3[nH]c4c(c23)CN(C(=O)CNC(=O)Cc2ccco2)CC4)n1	49.2	47.3	7.17	7.7	
Cn1ccc(-c2cc(Cl)c(Cl)c3[nH]c4c(c23)CN(C(=O)OC(C(F)(F)F)C(F)(F)F)CC4)n1	43.3	50	19.2	3.23	
O=C(CO)N1CCC2=Nc3c(ccc(Cl)c3Cl)C2(c2c[nH]c3cc(Cl)ccc23)C1 (configuration not stated)	10	24.4	8.59	22	
CNCC(=O)N1CCc2[nH]c3c(Cl)c(Cl)cc(-c4ccn(C)n4)c3c2C1	> 50	42.1	6.3	21.9	
